{"source": "the supplement of paper PMC11208160"}
{"test": "recombinant barcode read abundance after kanamycin selection (control-corrected) (log10(CPM+1)); higher = more efficient recombination; sequences stand for … in AGTGCAGAGAAAATCGGCCAGTTTTCTCTGCCTGCAGTCCGCATGCCGT…AGATTTATGCAGCGGACTGCCTTTCTCCCAAAGTGATAAACCGGACAGTATCATGGACCGGTTTTCCCGGTAATCCGTATTTGCAAGGTTGGTTTCACT; site = the 11-nt target", "how_it_was_run": "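In E. coli, a pooled library matched targets to IS621 bridge RNA target-binding loops and was introduced alongside a donor plasmid. Cells went onto chloramphenicol/ampicillin/kanamycin with 0.1 mM IPTG or onto chloramphenicol/ampicillin LB agar as control, in duplicate. Recombination efficiency, from recombinant-junction barcodes as counts per million, is averaged and control-corrected. It is reported as log10(CPM+1).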"}
{"sequence": "ATTCCATCTTGGGTTCTAACCTGTTGCCT (site ATACCATCTAG)", "recombinant barcode read abundance (log10)": 0.57}
{"sequence": "ATTCCATCTTGGGTTCTAACCTGTTGCCT (site ATCCCATCTAG)", "recombinant barcode read abundance (log10)": 0.281}
{"sequence": "ATTCCATCTTGGGTTCTAACCTGTTGCCT (site ATGCCATCTAG)", "recombinant barcode read abundance (log10)": 0.12}
{"sequence": "ATTCCATCTTGGGTTCTAACCTGTTGCCT (site ATTCCATCTAG)", "recombinant barcode read abundance (log10)": 0.538}
{"sequence": "ATTGCTACTTGGGTTCTAACCTGTTGCCA (site ATTGCTACTTG)", "recombinant barcode read abundance (log10)": 0.122}
{"sequence": "ATTGCTACTTGGGTTCTAACCTGTTGCCA (site GAACAGCCTAC)", "recombinant barcode read abundance (log10)": 0.143}
{"sequence": "ATTGGCTCTTGGGTTCTAACCTGTTGCCT (site ATTGGATCTAG)", "recombinant barcode read abundance (log10)": 0.339}
{"sequence": "ATTGGCTCTTGGGTTCTAACCTGTTGCCT (site ATTGGCTCTAG)", "recombinant barcode read abundance (log10)": 0.684}
{"sequence": "ATTGGCTCTTGGGTTCTAACCTGTTGCCT (site ATTGGGTCTAG)", "recombinant barcode read abundance (log10)": 0.0639}
{"sequence": "ATTGGCTCTTGGGTTCTAACCTGTTGCCT (site ATTGGTTCTAG)", "recombinant barcode read abundance (log10)": 0.0735}
{"sequence": "ATTGGTCCTTGGGTTCTAACCTGTTGCAT (site ATTGCTCCTAG)", "recombinant barcode read abundance (log10)": 0.364}
{"sequence": "ATTGGTCCTTGGGTTCTAACCTGTTGCAT (site ATTGGTCCTAT)", "recombinant barcode read abundance (log10)": 1.92}
{"sequence": "ATTTCGACTTGGGTTCTAACCTGTTGCGG (site ATTTCGACTCC)", "recombinant barcode read abundance (log10)": 0.713}
{"sequence": "ATTTCGACTTGGGTTCTAACCTGTTGCGG (site GCAGGTGCTAA)", "recombinant barcode read abundance (log10)": 0.021}
{"sequence": "ATTTCTACTTGGGTTCTAACCTGTTGCGA (site ATTTCTACTTC)", "recombinant barcode read abundance (log10)": 0.194}
{"sequence": "ATTTCTACTTGGGTTCTAACCTGTTGCGA (site GTTTCTACTTA)", "recombinant barcode read abundance (log10)": 0.102}
{"sequence": "ATTTGGACTTGGGTTCTAACCTGTTGCCT (site ATTTGAACTAG)", "recombinant barcode read abundance (log10)": 0.173}
{"sequence": "ATTTGGACTTGGGTTCTAACCTGTTGCCT (site ATTTGCACTAG)", "recombinant barcode read abundance (log10)": 0.0773}
{"sequence": "ATTTGGACTTGGGTTCTAACCTGTTGCCT (site ATTTGGACTAG)", "recombinant barcode read abundance (log10)": 0.111}
{"sequence": "ATTTGGACTTGGGTTCTAACCTGTTGCCT (site ATTTGTACTAG)", "recombinant barcode read abundance (log10)": 0.0943}
{"sequence": "CAAAAGGCTTGGGTTCTAACCTGTTGCCT (site ATCGTACCTTA)", "recombinant barcode read abundance (log10)": 0.469}
{"sequence": "CAAAAGGCTTGGGTTCTAACCTGTTGCCT (site CAAAAGGCTAG)", "recombinant barcode read abundance (log10)": 0.0565}
{"sequence": "CAAACAACTTGGGTTCTAACCTGTTGCCT (site CAAACAACTAG)", "recombinant barcode read abundance (log10)": 0.235}
{"sequence": "CAAACAACTTGGGTTCTAACCTGTTGCCT (site CAAACACCTAG)", "recombinant barcode read abundance (log10)": 0.188}
{"sequence": "CAAACAACTTGGGTTCTAACCTGTTGCCT (site CAAACAGCTAG)", "recombinant barcode read abundance (log10)": 0.101}
{"sequence": "CAAACAACTTGGGTTCTAACCTGTTGCCT (site CAAACATCTAG)", "recombinant barcode read abundance (log10)": 0.133}
{"sequence": "CAAACTACTTGGGTTCTAACCTGTTGCTA (site CAAACTACTGT)", "recombinant barcode read abundance (log10)": 0.011}
{"sequence": "CAAACTACTTGGGTTCTAACCTGTTGCTA (site CAAACTACTTA)", "recombinant barcode read abundance (log10)": 0.386}
{"sequence": "CAAACTCCTTGGGTTCTAACCTGTTGCAT (site CAAACTCCTAA)", "recombinant barcode read abundance (log10)": 0.116}
{"sequence": "CAAACTCCTTGGGTTCTAACCTGTTGCAT (site CAAACTCCTAC)", "recombinant barcode read abundance (log10)": 0.0268}
{"sequence": "CAAACTCCTTGGGTTCTAACCTGTTGCAT (site CAAACTCCTAG)", "recombinant barcode read abundance (log10)": 0.0257}
{"sequence": "CAAACTCCTTGGGTTCTAACCTGTTGCAT (site CAAACTCCTAT)", "recombinant barcode read abundance (log10)": 0.713}
{"sequence": "CAAACTCCTTGGGTTCTAACCTGTTGCCT (site CAAACTCCTAA)", "recombinant barcode read abundance (log10)": 0.137}
{"sequence": "CAAACTCCTTGGGTTCTAACCTGTTGCCT (site CAAACTCCTAC)", "recombinant barcode read abundance (log10)": 0.0217}
{"sequence": "CAAACTCCTTGGGTTCTAACCTGTTGCCT (site CAAACTCCTAG)", "recombinant barcode read abundance (log10)": 0.238}
{"sequence": "CAAACTCCTTGGGTTCTAACCTGTTGCCT (site CAAACTCCTAT)", "recombinant barcode read abundance (log10)": 0.067}
{"sequence": "CAAACTCCTTGGGTTCTAACCTGTTGCTT (site CAAACTCCTAA)", "recombinant barcode read abundance (log10)": 0.191}
{"sequence": "CAAACTCCTTGGGTTCTAACCTGTTGCTT (site CAAACTCCTAC)", "recombinant barcode read abundance (log10)": 0.0428}
{"sequence": "CAAACTCCTTGGGTTCTAACCTGTTGCTT (site CAAACTCCTAG)", "recombinant barcode read abundance (log10)": 0.221}
{"sequence": "CAAACTCCTTGGGTTCTAACCTGTTGCTT (site CAAACTCCTAT)", "recombinant barcode read abundance (log10)": 0.0809}
{"sequence": "CAAAGACCTTGGGTTCTAACCTGTTGCGG (site AAAATACCTCC)", "recombinant barcode read abundance (log10)": 0.14}
{"sequence": "CAAAGACCTTGGGTTCTAACCTGTTGCGG (site CAAAGACCTCC)", "recombinant barcode read abundance (log10)": 2.06}
{"sequence": "CAAAGATCTTGGGTTCTAACCTGTTGCTT (site CAAAGATCTAA)", "recombinant barcode read abundance (log10)": 1.03}
{"sequence": "CAAAGATCTTGGGTTCTAACCTGTTGCTT (site CACAGATCTAA)", "recombinant barcode read abundance (log10)": 0.046}
{"sequence": "CAAAGATCTTGGGTTCTAACCTGTTGCTT (site CAGAGATCTAA)", "recombinant barcode read abundance (log10)": 0.0421}
{"sequence": "CAAAGATCTTGGGTTCTAACCTGTTGCTT (site CATAGATCTAA)", "recombinant barcode read abundance (log10)": 0.108}
{"sequence": "CAAAGGCCTTGGGTTCTAACCTGTTGCCT (site CAAAGGCCTAG)", "recombinant barcode read abundance (log10)": 0.173}
{"sequence": "CAAAGGCCTTGGGTTCTAACCTGTTGCCT (site CAACGGCCTAG)", "recombinant barcode read abundance (log10)": 0.0335}
{"sequence": "CAAAGGCCTTGGGTTCTAACCTGTTGCCT (site CAAGGGCCTAG)", "recombinant barcode read abundance (log10)": 0.228}
{"sequence": "CAAAGGCCTTGGGTTCTAACCTGTTGCCT (site CAATGGCCTAG)", "recombinant barcode read abundance (log10)": 0.157}
{"sequence": "CAAAGGTCTTGGGTTCTAACCTGTTGCTA (site CAAAGGTCTTA)", "recombinant barcode read abundance (log10)": 1.39}
{"sequence": "CAAAGGTCTTGGGTTCTAACCTGTTGCTA (site TAAAGGCCTTA)", "recombinant barcode read abundance (log10)": 0.0182}
{"sequence": "CAAAGTGCTTGGGTTCTAACCTGTTGCCT (site CAAAGTGCTAG)", "recombinant barcode read abundance (log10)": 0.517}
{"sequence": "CAAAGTGCTTGGGTTCTAACCTGTTGCCT (site GAAAGTGCTAG)", "recombinant barcode read abundance (log10)": 0.205}
{"sequence": "CAAATGTCTTGGGTTCTAACCTGTTGCCT (site AAAATGCCTAG)", "recombinant barcode read abundance (log10)": 0.299}
{"sequence": "CAAATGTCTTGGGTTCTAACCTGTTGCCT (site CAAATGTCTAG)", "recombinant barcode read abundance (log10)": 1.1}
{"sequence": "CAACACCCTTGGGTTCTAACCTGTTGCAT (site CAACACCCTAT)", "recombinant barcode read abundance (log10)": 2.33}
{"sequence": "CAACACCCTTGGGTTCTAACCTGTTGCAT (site GTTTCAACTTG)", "recombinant barcode read abundance (log10)": 0.157}
{"sequence": "CAACCACCTTGGGTTCTAACCTGTTGCTT (site CAAACACCTAA)", "recombinant barcode read abundance (log10)": 0.142}
{"sequence": "CAACCACCTTGGGTTCTAACCTGTTGCTT (site CAACCACCTAA)", "recombinant barcode read abundance (log10)": 1.41}
{"sequence": "CAACCACCTTGGGTTCTAACCTGTTGCTT (site CAAGCACCTAA)", "recombinant barcode read abundance (log10)": 0.0953}
{"sequence": "CAACCACCTTGGGTTCTAACCTGTTGCTT (site CAATCACCTAA)", "recombinant barcode read abundance (log10)": 0.159}
{"sequence": "CAAGTACCTTGGGTTCTAACCTGTTGCCT (site AAAGTACCTAG)", "recombinant barcode read abundance (log10)": 0.343}
{"sequence": "CAAGTACCTTGGGTTCTAACCTGTTGCCT (site CAAGTACCTAG)", "recombinant barcode read abundance (log10)": 0.688}
{"sequence": "CAAGTACCTTGGGTTCTAACCTGTTGCCT (site GAAGTACCTAG)", "recombinant barcode read abundance (log10)": 0.185}
{"sequence": "CAAGTACCTTGGGTTCTAACCTGTTGCCT (site TAAGTACCTAG)", "recombinant barcode read abundance (log10)": 0.22}
{"sequence": "CAAGTTGCTTGGGTTCTAACCTGTTGCCT (site CAAGTAGCTAG)", "recombinant barcode read abundance (log10)": 0.14}
{"sequence": "CAAGTTGCTTGGGTTCTAACCTGTTGCCT (site CAAGTCGCTAG)", "recombinant barcode read abundance (log10)": 0.305}
{"sequence": "CAAGTTGCTTGGGTTCTAACCTGTTGCCT (site CAAGTGGCTAG)", "recombinant barcode read abundance (log10)": 0.227}
{"sequence": "CAAGTTGCTTGGGTTCTAACCTGTTGCCT (site CAAGTTGCTAG)", "recombinant barcode read abundance (log10)": 1.43}
{"sequence": "CAATGGGCTTGGGTTCTAACCTGTTGCCG (site CAATGGGCTCG)", "recombinant barcode read abundance (log10)": 0.961}
{"sequence": "CAATGGGCTTGGGTTCTAACCTGTTGCCG (site CGATGGACTCG)", "recombinant barcode read abundance (log10)": 0.179}
{"sequence": "CAATGGTCTTGGGTTCTAACCTGTTGCCT (site CAATGGTCTAA)", "recombinant barcode read abundance (log10)": 0.376}
{"sequence": "CAATGGTCTTGGGTTCTAACCTGTTGCCT (site CAATGGTCTAC)", "recombinant barcode read abundance (log10)": 0.0107}
{"sequence": "CAATGGTCTTGGGTTCTAACCTGTTGCCT (site CAATGGTCTAG)", "recombinant barcode read abundance (log10)": 1.54}
{"sequence": "CAATGGTCTTGGGTTCTAACCTGTTGCCT (site CAATGGTCTAT)", "recombinant barcode read abundance (log10)": 0.939}
{"sequence": "CAATGGTCTTGGGTTCTAACCTGTTGCGT (site CAATGGTCTAA)", "recombinant barcode read abundance (log10)": 0.583}
